What all share (format): cell-based
Series [1] relates to E. coli JW5503 transformed with pJC27 plasmids. The series can be described thus: Translation accuracy reporter (mutant β-galactosidase, X-Gal staining). As to conditions: 4a,b, 6a,b and tobramycin 50 mg/mL; streptomycin, kanamycin 5 mg/mL; rifampicin 1 mg/mL. From the text:
It is known that tobramycin inhibits protein biosynthesis by the blocking of initiation and inducing translation errors. We have tested whether the new tobramycin derivatives 4a,b and 6a,b retain the ability to induce translation errors. This assay uses an E. coli strain with a plasmid construct that encodes beta-galactosidase in such a way that a functional protein is only synthesized in the presence of translation errors. If the mechanism of action of the antibiotic is related to the translation errors, we observe indigo blue staining along the edge of the inhibition zone because functional b-galactosidase degrades the substrate X-Gal. As a result, if the antibiotic causes translation errors, blue staining forms around the edge of the inhibition zone. […] According to this, an introduction at the 6″-position of the aminoalkylamino or guanidinoalkylamino residues of tobramycin retains an original mechanism of aminoglycoside’s antibacterial activity affecting the protein synthesis.
To qualitatively evaluate translation accuracy in the presence of antibiotics, E. coli JW5503 [34] (kanamycin resistance cassette removed as per) transformed with pJC27 plasmids was utilized. The plasmids encode the β-galactosidase gene containing a mutation in its active center (E537: GAA→GAC/GGG), alongside a control plasmid without the mutation. Active β-galactosidase synthesis could only occur if translation errors were introduced. Petri dishes (9 cm) containing 20 mL of solid LB agar (1.5%) supplemented with chloramphenicol (11.3 μg/mL) and X-Gal (80 μg/mL) were prepared. A secondary layer comprising 3.5 mL of LB agar (0.6%), supplemented with 11.3 μg/mL chloramphenicol and 0.5 mL of liquid culture (A600~1.0), was added and allowed to solidify. Antibiotics were applied to the plates in 1 μL aliquots at the following concentrations: 50 mg/mL for 4a, 4b, 6a, 6b, and tobramycin; 5 mg/mL for streptomycin and kanamycin; and 1 mg/mL for rifampicin. Plates were incubated at 37 °C for 18 h. […] Results were documented using a Samsung Galaxy Tab A71 camera.

Series [2] deals with E. coli JW5503 kanS EF-G P610T. The series can be described thus: MIC in LB medium, aminoglycoside-resistant mutant EF-G P610T. The settings on record: Escherichia coli, 18 h. Here is the method:
(§1) The determination of the minimum inhibitory concentration (MIC) was performed on three strains from the working collection of MSU: E. coli JW5503 [34], which lacked a kanamycin resistance cassette removed as per the method outlined in [39], and two strains derived from this strain through in vivo selection with kanamycin. The latter strains harbored P610T and P610L substitutions in the fusA gene. For the MIC determination, 100 μL (rows 2–11) and 200 μL (row 1) of LB liquid medium containing a 1:1000 dilution of overnight culture was added to each well of a 96-well transparent plate. Subsequently, 2 μL of a 50 μg/mL antibiotic solution was introduced into the first row, and serial two-fold dilutions were performed across each horizontal row, decreasing the antibiotic concentration incrementally. The final two rows were designated as controls: row 12 contained LB medium without cells or antibiotics, and row 11 contained cells without antibiotics. Following 18 h of incubation at 37 °C with constant agitation, the optical density at 590 nm (A590) was measured using a Victor X5 2030 spectrofluorometer (PerkinElmer, Waltham, MA, USA). The MIC was defined as the antibiotic concentration in the first well where no cell growth occurred. Each experiment was conducted in triplicate for all tested antibiotics.

A further series has as its system E. coli JW5503. Nature of the series: MIC, broth microdilution, E. coli JW5503. The settings on record: Escherichia coli, JW5503. Here is the method:
(§2) The microbial strains used in this study were obtained from the collection of the Gause Institute of New Antibiotics. […] Storage was carried out in accordance with CLSI guidelines. Prior to experimentation, the bacterial strains were revived from cryopreservation by inoculating them onto trypticase soy agar (Becton, Dickinson, France) and incubating at (36 ± 1) °C for 16–24 h. Individual morphologically homogeneous colonies were then suspended in sterile physiological saline, and the turbidity of the suspension was adjusted to 0.5 McFarland units using a DEN-1 spectrophotometer (Biosan, Riga, Latvia), which corresponds to a concentration of 1.5 × 10^8 CFU/mL.
(§3) The samples were dissolved in sterile distilled water or dimethyl sulfoxide (DMSO), depending on the physicochemical properties of the compounds under investigation, to a concentration of 10,000 µg/mL.
(§4) Activity was evaluated by determining the minimum inhibitory concentration (MIC) values using the microdilution method in Mueller–Hinton Broth (Beckton and Dickinson, Le Pont-de-Claix, France), in accordance with the standard procedure for assessing the antimicrobial susceptibility of microorganisms.
(§5) The analysis was conducted in 96-well microtiter plates (Medpolymer, Saint Petersburg, Russia). The bacterial inoculum was introduced within 15 min of preparation. […] Microbial growth in the presence of the tested compounds was compared to the growth control (without exposure to the test samples). The MIC was defined as the lowest concentration at which visible microbial growth was inhibited.
(Dilution methods test growth across graded concentrations, often in twofold steps.)

The next series concerns E. coli ATCC 25922. The series can be described thus: MIC, broth microdilution, E. coli ATCC 25922. The settings on record: for MIC: Escherichia coli, ATCC25922, Table 1, read-out: MIC. The procedure:
as §2, §3, §4, §5
The MIC values of the reference strains were required to fall within the acceptable ranges specified in [30], provided that standard assay conditions were maintained.

For series [3], the system named is E. coli JW5503 kanS EF-G P610L. The series can be described thus: MIC in LB medium, aminoglycoside-resistant mutant EF-G P610L. The settings on record: Escherichia coli, 18 h. Here is the method:
as §1

Another series can be described thus: MTT cytotoxicity assay. As to conditions: human, MTT test, HEK293T cells. The procedure:
An MTT assay was conducted to assess the cytotoxicity of compounds on HEK293T cell lines. Cell line HEK293T was kindly provided by Dr. E. Knyazhanskaya. A total of 2500 cells per well were seeded into 96-well plates containing 100 μL of DMEM/F12 medium (Paneco LLC, Moscow, Russia) and incubated at 37 °C with 5% CO2 for 24 h prior to treatment. Dilutions of the test compounds 4a, 4b, 6a, and 6b, prepared in deionized sterile water, were added in 11 μL aliquots to achieve final concentrations ranging from 8.75 to 140 μg/mL (five dilutions per compound) in triplicate. The cells were incubated with the compounds for 72 h, after which 0.5 mg/mL of MTT reagent (Paneco LLC, Russia) was added. Following a 1.5 h incubation, the medium was removed, and 120 μL of DMSO was added to dissolve the blue formazan derivative formed by metabolically active cells. The absorbance at 565 nm was measured using a plate reader, and the data were normalized to untreated control cells. The half-maximal inhibitory concentration (IC50) was calculated using GraphPad Prism 5 software (GraphPad Software, Inc., San Diego, CA, USA).
For orientation: Tetrazolium assays rely on reduction of a dye to a coloured formazan, in cell work by metabolically active cells.

In brackets after ≈: the same amount, converted by molar mass.

The MIC is the smallest concentration in the dilution series that meets the test's criterion for growth inhibition. As usually defined, the IC50 is the midpoint of a concentration-inhibition curve. The low end stands for greater potency, the high end for weaker potency.

As to `NCCNC[C@H]1O[C@H](O[C@@H]2[C@@H](O)[C@H](O[C@H]3O[C@H](CN)[C@@H](O)C[C@H]3N)[C@@H](N)C[C@H]2N)[C@H](O)[C@@H](N)[C@@H]1O` [Compound 4a, 6″-(2-Aminoethyamino)-6″-deoxytobramycin acetate], the “induction of translation errors (blue staining at edge of inhibition zone)” value in series [1] is recorded as “caused a blue coloring of the bacterial lawn”. Also, the minimal inhibitory concentration (MIC) was 40 µg/mL in series [2], 2 µg/mL against E. coli JW5503, 0.5 µg/mL in the series on E. coli ATCC 25922 and 40 µg/mL in series [3]. Moreover, the 50% inhibitory concentration (IC50) at 72 h in “MTT cytotoxicity assay” was more than 140 µg/mL.

Regarding `NCCCNC[C@H]1O[C@H](O[C@@H]2[C@@H](O)[C@H](O[C@H]3O[C@H](CN)[C@@H](O)C[C@H]3N)[C@@H](N)C[C@H]2N)[C@H](O)[C@@H](N)[C@@H]1O` [Compound 4b, 6″-(3-Aminopropyl-1-amino)-6″-deoxytobramycin acetate], the “induction of translation errors (blue staining at edge of inhibition zone)” value in series [1] is recorded as “caused a blue coloring of the bacterial lawn”. Besides, the MIC was found to be 80 µg/mL in series [2], 8 µg/mL in the series with E. coli JW5503, 1 µg/mL in the series on E. coli ATCC 25922 and 80 µg/mL in series [3]. In addition, the concentration for half-maximal inhibition (IC50) at 72 h in “MTT cytotoxicity assay” is more than 140 µg/mL.

Regarding `N=C(N)NCCNC[C@H]1O[C@H](O[C@@H]2[C@@H](O)[C@H](O[C@H]3O[C@H](CN)[C@@H](O)C[C@H]3N)[C@@H](N)C[C@H]2N)[C@H](O)[C@@H](N)[C@@H]1O` [Compound 6a, 6″-(2-Guanidinoethylamino)-6″-deoxytobramycin acetate], in series [1], the “induction of translation errors (blue staining at edge of inhibition zone)” value is “caused a blue coloring of the bacterial lawn”. The minimum inhibitory concentration (MIC) in series [2] worked out at 40 µg/mL; in the series on E. coli JW5503, 4 µg/mL; in the series on E. coli ATCC 25922, 1 µg/mL; in series [3], 40 µg/mL. In the series “MTT cytotoxicity assay”, this compound displayed an IC50 at 72 h of more than 140 µg/mL.

On to `N=C(N)NCCCNC[C@H]1O[C@H](O[C@@H]2[C@@H](O)[C@H](O[C@H]3O[C@H](CN)[C@@H](O)C[C@H]3N)[C@@H](N)C[C@H]2N)[C@H](O)[C@@H](N)[C@@H]1O` [Compound 6b, 6″-(3-Guanidinopropyl-1-amino)-6″-deoxytobramycin acetate], for which the “induction of translation errors (blue staining at edge of inhibition zone)” value in series [1] was “caused a blue coloring of the bacterial lawn”. Moreover, the minimum inhibitory concentration (MIC) amounted to 80 µg/mL in series [2], 8 µg/mL against E. coli JW5503, 2 µg/mL in the series on E. coli ATCC 25922 and 80 µg/mL in series [3]. The compound further returned an IC50 at 72 h in “MTT cytotoxicity assay” of more than 140 µg/mL.

In the case of `NC[C@H]1O[C@H](O[C@H]2[C@H](O)[C@@H](O[C@H]3O[C@H](CO)[C@@H](O)[C@H](N)[C@H]3O)[C@H](N)C[C@@H]2N)[C@H](N)C[C@@H]1O` [Tobramycin, tobramycin], the “induction of translation errors (blue staining at edge of inhibition zone)” value in series [1] was “increase the misreading”. Moreover, the MIC in series [2] worked out at 20 µg/mL (≈ 42.8 µM); in the series with E. coli JW5503, 1 µg/mL (≈ 2.14 µM); with E. coli ATCC 25922 it was 0.25 µg/mL (≈ 0.535 µM); in series [3] it was 40 µg/mL (≈ 85.6 µM). Moreover, the “MIC of control antibiotic” value in the series on E. coli ATCC 25922 (quality control, must fall in acceptable ranges of [30]) was 0.25 to 1 µg/mL. The compound also came in with a concentration for half-maximal inhibition (IC50) at 72 h in the series “MTT cytotoxicity assay” of 58 ± 3 µg/mL (≈ 124 µM).

(Values after publication PMC11672562, “Synthesis and Antibacterial Activity of New 6″-Modified Tobramycin Derivatives” (Antibiotics, 2024).)
